Here are results for 4 compounds from US4125716A, “Methoxymethyl esters of substituted imidazolidinyl-3-methyl-3-cephem-4-carboxylic acids” (Bristol-Myers Company, priority 1977, dated 1978).

In brackets after ≈: the same amount, converted by molar mass. Where two headings read alike, the source gives them in different places.

Data set [1] relates to Streptococcus pyogenes A9604. Description: MIC, tube dilution technique, Streptococcus pyogenes A9604. The data set is classed as cell-based. The text has this:
(§1) […]. The methoxymethyl esters of hetacephalexin and hetacefadroxil are the compounds of Formula I wherein R^1 is hydrogen and hydroxy, respectively.

Data set [2] in a line: in vivo. The conditions noted are these: rat, po, 200 mg/kg; for concentration at 0.5 h / concentration at 1 h / concentration at 2 h: Plasma Level.
Experimental: (§3) The dosing solutions were stored in an ice bath, used within 6 hours of preparation and an aliquot of each solution was retained for assay.
(§4) Rats in each treatment group were administered 1 ml of dosing solution per 100 g of body weight. The four additional control rats were administered a glycerol formal:deionized water (1:1) solution (1ml/100 g b.w.) to serve as a vehicle control group.
(§5) Four rats from each treatment group and one rat from the vehicle control group were killed 15, 30, 60 and 120 minutes after dosing. The rats were killed by exsanguination at the bifurcation of the femoral arteries while they were under light ether anesthesia. Approximately 10 ml of blood were obtained from each rat in 10 ml disposable syringes which had been previously rinsed with a 1% Na heparin in 0.9% NaCl solution. Each sample was immediately transferred from the syringe, after removing the needle, to a heparinized vacutainer tube, gently inverted a few times to mix the anticoagulant and centrifuged at 3000 rpm for 5 minutes in a refrigerated centrifuge at 4° C. to separate plasma. Plasma was transferred to a polypropylene snap-cap tube and stored at -20° C. until assayed. Lungs and brains were removed immediately after exsanguination, rinsed with ice-cold 0.9% NaCl solution, blotted dry with gauze, wrapped separately in pieces of aluminum foil, placed in dry ice for quick freezing and stored at -20° C. until assayed.
(§6) Plasma samples were diluted with an equal volume of acetone and further diluted with a 1:1 mixture of acetone:1% pH6 phosphate buffer to a concentration approximating the midpoint of the standard curve. Tissues were homogenized with 2 volumes of 1% pH 6 phosphate buffer in a glass homogenizer with a motor driven teflon pestle. Equal volumes of homogenate and acetone were mixed and, following centrifugation, the supernatant was diluted for assay in a manner similar to plasma. Dosing solutions were diluted with acetone:1% pH 6 phosphate buffer (1:1) and assayed similar to plasma.
The conditions of data set [3]: rat, in vivo, po, 200 mg/kg.
Experimental: as §3, §4, §5, §6
Data set [4] can be described thus: in vivo. The note with it: rat, po, 200 mg/kg, Brain Level.
Experimental: as §3, §4, §5, §6
Data set [5] deals with Enterobacter cloacae A9659. Nature of the data set: MIC, tube dilution technique, Enterobacter cloacae A9659. Format: cell-based. The conditions noted are these: overnight, Nutrient Broth, 37° C., read-out: Minimum Inhibitory Concentration. The text has this:
(§2) The methoxymethyl esters of hetacephalexin and hetacefadroxil are the compounds of Formula I wherein R^1 is hydrogen and hydroxy, respectively.

Data set [6] is described as follows: in vivo. The conditions noted are these: rat, po, 200 mg/kg, Lung Level.
Experimental: as §3, §4, §5, §6
For data set [7], the system named is Escherichia coli A15119. Nature of the data set: MIC, tube dilution technique, Escherichia coli A15119. The data set is classed as cell-based.
From the text: as §1

In data set [8] the test system is Enterobacter cloacae A9656. Description: MIC, tube dilution technique, Enterobacter cloacae A9656. The conditions noted are these: overnight, Nutrient Broth, 37° C., read-out: Minimum Inhibitory Concentration. Format: cell-based.
From the text: as §2

Data set [9] concerns Klebsiella pneumoniae A15130. Nature of the data set: MIC, tube dilution technique, Klebsiella pneumoniae A15130. Format: cell-based.
From the text: as §1

For data set [10] the following is noted: rat, in vivo, po, 200 mg/kg. The source holds these as a separate data set.
Experimental: as §3, §4, §5, §6
Data set [11] deals with Pseudomonas aeruginosa A9843A. Nature of the data set: MIC, tube dilution technique, Pseudomonas aeruginosa A9843A. Format: cell-based. The conditions noted are these: read-out: Minimum Inhibitory Concentration.
From the text: as §1

The nature of data set [12]: in vivo. The note with it: rat, po, 200 mg/kg.
Experimental: as §3, §4, §5, §6
The subject of data set [13] is Proteus morganii A15153. Nature of the data set: MIC, tube dilution technique, Proteus morganii A15153. Format: cell-based. The note with it: Morganella morganii, overnight, Nutrient Broth, 37° C., read-out: Minimum Inhibitory Concentration.
From the text: as §2

The test system of data set [14] is Serratia marcescens A20019. Nature of the data set: MIC, tube dilution technique, Serratia marcescens A20019. Format: cell-based. The note with it: overnight, Nutrient Broth, 37° C., read-out: Minimum Inhibitory Concentration.
From the text: as §2

Data set [15] is described as follows: Antibiotic concentrations of dosing solutions retained for assay (cup-plate assay, CHCl3 extract). The data set is classed as physicochemical. The note with it: pH 7.4 phosphate buffer / CHCl3.
Experimental: as §3
Dosing solutions were diluted with acetone:1% pH 6 phosphate buffer (1:1) and assayed similar to plasma.
Data set [16] deals with Staphylococcus aureus A9537. Nature of the data set: MIC, tube dilution technique, Staphylococcus aureus A9537. Format: cell-based.
From the text: as §1

A short description of data set [17]: Tissue levels and tissue penetration following oral administration. The data set is classed as in vivo, male Sprague-Dawley rats. The note with it: rat.
Experimental: as §3, §4
Four rats from each treatment group and one rat from the vehicle control group were killed 15, 30, 60 and 120 minutes after dosing. The rats were killed by exsanguination at the bifurcation of the femoral arteries while they were under light ether anesthesia. Approximately 10 ml of blood were obtained from each rat in 10 ml disposable syringes which had been previously rinsed with a 1% Na heparin in 0.9% NaCl solution. Each sample was immediately transferred from the syringe, after removing the needle, to a heparinized vacutainer tube, gently inverted a few times to mix the anticoagulant and centrifuged at 3000 rpm for 5 minutes in a refrigerated centrifuge at 4° C. to separate plasma. Plasma was transferred to a polypropylene snap-cap tube and stored at -20° C. until assayed. […]
The subject of data set [18] is Streptococus pneumoniae A9585. Nature of the data set: MIC, tube dilution technique, Streptococcus pneumoniae A9585. Format: cell-based. The conditions noted are these: overnight, Nutrient Broth, 37° C., read-out: Minimum Inhibitory Concentration.
From the text: as §2

The nature of data set [19]: in vivo. The conditions noted are these: rat, po, 200 mg/kg; for Kp at 0.5 h / Kp at 1 h / Kp at 2 h / Kp at […]: Brain to Plasma Ratio.
Experimental: as §3, §4, §5, §6
Data set [20] has as its system Proteus mirabilis A9900. Nature of the data set: MIC, tube dilution technique, Proteus mirabilis A9900. The data set is classed as cell-based.
From the text: as §1

For data set [21] the following is noted: cited from earlier work.
Where [22] appears, read: Streptococcus pyogenes A9604, overnight, Nutrient Broth, 37° C., read-out: Minimum Inhibitory Concentration.
The mark [23] stands for this setting: Escherichia coli A15119, overnight, Nutrient Broth, 37° C., read-out: Minimum Inhibitory Concentration.
The mark [24] stands for this setting: Klebsiella pneumoniae A15130, overnight, Nutrient Broth, 37° C., read-out: Minimum Inhibitory Concentration.
Where [25] appears, read: A9537, Staph aureus + 50% serum, A9537, overnight, Nutrient Broth, 37° C., read-out: Minimum Inhibitory Concentration.
Where [26] appears, read: A9537, Staphylococcus aureus A9537, overnight, Nutrient Broth, 37° C., read-out: Minimum Inhibitory Concentration.
[27] abbreviates: Proteus mirabilis A9900, overnight, Nutrient Broth, 37° C., read-out: Minimum Inhibitory Concentration.

On to `COCOC(=O)C1=C(C)CSC2C(N3C(=O)[C@@H](c4ccccc4)NC3(C)C)C(=O)N12` (stereo partly drawn) [Methoxymethyl Ester of Hetacephalexin], for which the MIC in data set [1] (setting [22]) was 0.25 µg/mL (≈ 0.579 µM); in [5], 125 µg/mL (≈ 290 µM); in data set [7] (setting [23]), 8 µg/mL (≈ 18.5 µM); in [8] it was 125 µg/mL (≈ 290 µM); in data set [9] (setting [24]), 16 µg/mL (≈ 37.1 µM); in data set [11], greater than 125 µg/mL. Moreover, the MIC in [13] was 125 µg/mL (≈ 290 µM); in [14], greater than 125 µg/mL; in [16] (setting [25]), 2 µg/mL; in data set [16] (setting [26]) it was 1 µg/mL (≈ 2.32 µM); in [18], 1 µg/mL (≈ 2.32 µM); in data set [20] (setting [27]) it was 8 µg/mL (≈ 18.5 µM). Besides, the figures for the Tmax in data set [2], in data set [12] and in [19] were no more than 15 min, roughly 15 min and roughly 15 min, respectively. Besides, the concentration at 0.5 h amounted to 40000 ng/mL in data set [2]; 45500 ng/mL in data set [2] (mean); 1700 ng/g in [4]; 2200 ng/g in [4] (mean); 23000 ng/g in data set [6]; 27000 ng/g in [6] (mean). For the same compound, the concentration at 1 h came out at 36000 ng/mL in data set [2]; 34200 ng/mL in [2] (mean); 1700 ng/g in data set [4]; 1800 ng/g in data set [4] (mean); 22000 ng/g in [6]; 22300 ng/g in data set [6] (mean). Besides, the concentration at 2 h in [2] turned out to be 11000 ng/mL; in [2] (mean) it was 14500 ng/mL; in data set [4] it was 500 ng/g; in data set [4] (mean) it was 500 ng/g; in data set [6] it was 4100 ng/g; in data set [6] (mean) it was 4700 ng/g. Further, the absorption result in data set [3] is reported as “rapidly absorbed”. Further, the “Lung to Plasma Ratio × 100, mean” value worked out at 82.6 in [10] (15 min), 60.0 in [10] (30 min), 67.2 in [10] (60 min) and 33.0 in data set [10] (120 min). For the same compound, the Kp was roughly 0.83 in data set [12] and roughly 0.06 in [19] (brain peak as percent of plasma level). For the same compound, the “CHCl3 extractability / partition into CHCl3” value in data set [15] is on record as “all of the antibiotic activity was CHCl3 extractable”. For the same compound, the “penetration of tissue cell membranes and blood-brain barrier compared with cephalexin” value in [17] was “more readily penetrates tissue cell membranes and crosses the blood-brain barrier”. The Kp at 0.5 h in [19] was found to be 0.042; in data set [19] (mean), 0.047. Moreover, the results for the Kp at 1 h in data set [19] and in data set [19] (mean) were 0.047 and 0.051, respectively. Also, the Kp at 2 h came out at 0.046 in [19] and 0.035 in data set [19] (mean). Moreover, the Kp at […] stood at 0.056 in [19] and 0.058 in data set [19] (mean).
Turning to `CC1=C(C(=O)O)N2C(=O)[C@@H](NC(=O)[C@H](N)c3ccccc3)[C@H]2SC1` [Cephalexin, cephalexin, reference compound], the MIC in data set [1] (Streptococcus pyogenes, A9604, read-out: Minimum Inhibitory Concentration) is 0.5 µg/mL (≈ 1.44 µM); in [5] it was greater than 125 µg/mL; in data set [7] (Escherichia coli, A15119, read-out: Minimum Inhibitory Concentration) it was 8 µg/mL (≈ 23 µM); in data set [8], greater than 125 µg/mL; in [9] (Klebsiella pneumoniae, A15130, read-out: Minimum Inhibitory Concentration) it was 16 µg/mL (≈ 46.1 µM); in data set [11] it was greater than 125 µg/mL. The MIC in data set [13] was greater than 125 µg/mL; in [14], greater than 125 µg/mL; in data set [16] (A9537, read-out: Minimum Inhibitory Concentration, Staph aureus + 50% serum, A9537, overnight, Nutrient Broth, 37° C.), 2 µg/mL; in [16] (A9537, read-out: Minimum Inhibitory Concentration, Staphylococcus aureus A9537, overnight, Nutrient Broth, 37° C.) it was 1 µg/mL (≈ 2.88 µM); in data set [20] (Proteus mirabilis, A9900, read-out: Minimum Inhibitory Concentration), 4 µg/mL (≈ 11.5 µM).
As for `COCOC(=O)C1=C(C)CSC2C(N3C(=O)[C@@H](c4ccc(O)cc4)NC3(C)C)C(=O)N12` (stereo partly drawn) [Methoxymethyl Ester of Hetacefadroxil], the MIC in data set [1] (setting [22]) is 0.25 µg/mL (≈ 0.559 µM); in [5], greater than 125 µg/mL; in [7] (setting [23]) it was 32 µg/mL (≈ 71.5 µM); in data set [8], 125 µg/mL (≈ 279 µM); in data set [9] (setting [24]) it was 63 µg/mL (≈ 141 µM); in [11], greater than 125 µg/mL. Also, the MIC in [13] was 125 µg/mL (≈ 279 µM); in data set [14], greater than 125 µg/mL; in data set [16] (setting [25]), 2 µg/mL; in data set [16] (setting [26]) it was 1 µg/mL (≈ 2.23 µM); in data set [18], 1 µg/mL (≈ 2.23 µM); in data set [20] (setting [27]), 8 µg/mL (≈ 17.9 µM).
In the case of `CC1=C(C(=O)O)N2C(=O)[C@@H](NC(=O)[C@H](N)c3ccc(O)cc3)[C@H]2SC1` [Cefadroxil, cefadroxil, reference compound], the MIC is 0.25 µg/mL (≈ 0.688 µM) in data set [1] (setting [22]); greater than 125 µg/mL in data set [5]; 16 µg/mL (≈ 44 µM) in data set [7] (setting [23]); greater than 125 µg/mL in data set [8]; 32 µg/mL (≈ 88.1 µM) in data set [9] (setting [24]); greater than 125 µg/mL in data set [11]. Moreover, the MIC in [13] was greater than 125 µg/mL; in data set [14], greater than 125 µg/mL; in data set [16] (setting [25]) it was 2 µg/mL; in data set [16] (setting [26]) it was 1 µg/mL (≈ 2.75 µM); in data set [18], 1 µg/mL (≈ 2.75 µM); in data set [20] (setting [27]) it was 8 µg/mL (≈ 22 µM). Also, in data set [21] (known parent compound), the lipid solubility entry is given as “lipid-insoluble”. Besides, the “ionization and water solubility” value in data set [21] (pH of blood plasma) is “ionized, water-soluble”.
